Measurements taken from patent publication US20250332283A1, “NUCLEOTIDE DELIVERY FROM INJECTABLE HYDROPHOBIC BIOMATERIAL” (DANMARKS TEKNISKE UNIVERSITET, priority 2022, published 2025).
“Also recorded” adds a separate entry of the source. {5AmMC6} = amino-modifier C6 linker (IDT), here bearing the Gd-DOTA label; l = locked nucleic acid (LNA); d = 2'-deoxy (DNA)

What was measured:
[1] = at a neutral pH of 7; cited from earlier work
[2] = Biodistribution of Gd-ASO after intratumoral injection, ICP-MS; assay type: in vivo, 4T1 tumor bearing Balb/CJRj mice
Protocol: Methods: Gadolinium-labeled ASOs were synthesized as described in example 41. Spermine-Chol Gd-ASO complexes were prepared using the hydrophobic ionpairing method as described in example 43. The ASO complex was concentrated by freeze-drying, dissolved i in DMSO and embedded into NCCell (SuBen: GTH: EtOH: DMSO 55:20:2:15) according to example 45. The final Gd-ASO concentration in the NCCell was […]. Free Gd-ASO was prepared in PBS buffer at a concentration of 0.95 μg/μL.
On Day 0, 4T1 tumor bearing Balb/CJRj mice were, under anesthesia (isoflurane), injected intratumorally with 50 μL of NCCell or 42 μL of free Gd-ASO in PBS, with a total concentration of 40 μg Gd-ASO per injection. […] Free ASO was injected using a 23G needle.
Blood was collected from different groups 10 minutes, 1 hour, 4 hours, 24 hours, 72 hours and 5 days after treatment. Organs and other fluids (liver, spleen, lungs, kidneys) were harvested 24 hours and 5 days after treatment. For sample processing, full organ weight was recorded, as well as the weight of the tissue used, and was further processed for ICP-MS measurements. To prepare tissue for ICP-MS analysis, 50-100 mg of organs or NCCell were digested in 500 μL HNO3, (69%) 50 μL HCl (37%) and 300 μL H2O2 (35%) at 65° C. overnight followed by further dilutions in water and 2% HCl and subjected to ICP-MS analysis using Ir (0.5 ppb) as internal standard.

Molecule | logP [1] | Gd-ASO concentration in liver, spleen, kidney and lung ([2]; 24 and 120 hours after intratumoral injection of 40 μg Gd-ASO) | Gd-ASO in blood ([2]; 10 minutes to 5 days after intratumoral injection, listed as free ASOs)
CCN(CCO)CCCOc1ccc2c(Nc3cc(CC(=O)Nc4cccc(F)c4)[nH]n3)ncnc2c1 [AZD281] | 2 | – | –
free ASO: Gd-DOTA labelled ASO /5AmMC6/+G*+T*+C*A*C*A*A*T*G*C*A*T*T*+C*+T*+A in PBS (DNA GTCACAATGCATTCTA; sugars from the 5' end l3 d10 l3, all phosphorothioate, 5' {5AmMC6}, methylation of C not given here; Gd-DOTA attached via 5' amino linker) | – | highest concentration of free ASO was observed in the lungs, followed by the liver and spleen | could be detected 10 minutes after injection; also recorded: no detectable Gd signal in the blood at later timepoints
